According to PubChem BioAssay AID1963853 (Molecular Pharmacology Branch, DTP, NCI, 2024):

Test system: 266295-075-R-J1-PDC spheroid viability
Assay: Anticancer human tumor 266295-075-R-J1-PDC patient-derived head and neck squamous carcinoma cell line growth inhibition [POLQ]
Conditions: spheroids with HUVEC and MSC; for IC50: curve of first compound; for viability, T/C: stronger effect = lower value
Procedure, shortened: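 PDC + HUVEC + MSC complex spheroids; POLQ inhibitors ± partner drugs; top conc. at/near clinical Cmax, else 10 microM (SN-38 1 microM), half-log dilutions; 37 degrees C, 5% CO2.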

[1] = second compound 0.0316 µM, first compound 0.0316 µM
[2] = second compound 0.0316 µM, first compound 0.1 µM
[3] = second compound 0.0316 µM, first compound 0.316 µM
[4] = second compound 0.0316 µM, first compound 1 µM
[5] = second compound 0.0316 µM, first compound 3.16 µM
[6] = second compound 0.0316 µM, first compound 10 µM
[7] = second compound 0.1 µM, first compound 0.0316 µM
[8] = second compound 0.1 µM, first compound 0.1 µM
[9] = second compound 0.1 µM, first compound 0.316 µM
[10] = second compound 0.1 µM, first compound 1 µM
[11] = second compound 0.1 µM, first compound 3.16 µM
[12] = second compound 0.1 µM, first compound 10 µM
[13] = second compound 0.316 µM, first compound 0.0316 µM
[14] = second compound 0.316 µM, first compound 0.1 µM
[15] = second compound 0.316 µM, first compound 0.316 µM
[16] = second compound 0.316 µM, first compound 1 µM
[17] = second compound 0.316 µM, first compound 3.16 µM
[18] = second compound 0.316 µM, first compound 10 µM
[19] = second compound 1 µM, first compound 0.0316 µM
[20] = second compound 1 µM, first compound 0.1 µM
[21] = second compound 1 µM, first compound 0.316 µM
[22] = second compound 1 µM, first compound 1 µM
[23] = second compound 1 µM, first compound 3.16 µM
[24] = second compound 1 µM, first compound 10 µM
[25] = second compound 3.16 µM, first compound 0.0316 µM
[26] = second compound 3.16 µM, first compound 0.1 µM
[27] = second compound 3.16 µM, first compound 0.316 µM
[28] = second compound 3.16 µM, first compound 1 µM
[29] = second compound 3.16 µM, first compound 3.16 µM
[30] = second compound 3.16 µM, first compound 10 µM
[31] = second compound 10 µM, first compound 0.0316 µM
[32] = second compound 10 µM, first compound 0.1 µM
[33] = second compound 10 µM, first compound 0.316 µM
[34] = second compound 10 µM, first compound 1 µM
[35] = second compound 10 µM, first compound 3.16 µM
[36] = second compound 10 µM, first compound 10 µM
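Further: spheroids exposed to compounds for seven days before readout.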

How did the IC50 (second compound 0.0316 µM) turn out when `Nc1ccn(C2OC(CO)C(O)C2(F)F)c(=O)n1` (stereo unspecified) + Nc1ccc(C#CCN(C(=O)Cc2ncc(C(F)(F)F)cc2C(F)(F)F)c2ccc(F)cc2)nn1 was run?
The IC50 was greater than 10 µM.

What about the IC50 (second compound 0.1 µM) of the same compound?
Its IC50 is greater than 10 µM.

And the IC50 (second compound 0.316 µM)?
The IC50 was greater than 10 µM.

What about the IC50 (second compound 1 µM) of the same compound?
Its IC50 is greater than 10 µM.

What about the IC50 (second compound 3.16 µM) of the same compound?
Its IC50 is greater than 10 µM.

And the IC50 (second compound 10 µM)?
The IC50 was greater than 10 µM.

And the viability, T/C [1]?
Its viability, T/C is 100%.

And the viability, T/C [2]?
Its viability, T/C is 106%.

What about the viability, T/C [3] of the same compound?
The viability, T/C was 81.6%.

And the viability, T/C [4]?
The viability, T/C was 77%.

And the viability, T/C [5]?
Its viability, T/C is 93.7%.

And the viability, T/C [6]?
Its viability, T/C is 85.3%.

And the viability, T/C [7]?
Its viability, T/C is 112%.

And the viability, T/C [8]?
Its viability, T/C is 98.8%.

And the viability, T/C [9]?
The viability, T/C was 72.6%.

And the viability, T/C [10]?
The viability, T/C was 96.5%.

And the viability, T/C [11]?
Its viability, T/C is 92.1%.

And the viability, T/C [12]?
Its viability, T/C is 80.4%.

What about the viability, T/C [13] of the same compound?
Its viability, T/C is 105%.

What about the viability, T/C [14] of the same compound?
Its viability, T/C is 88%.

What about the viability, T/C [15] of the same compound?
Its viability, T/C is 78.5%.

And the viability, T/C [16]?
Its viability, T/C is 94.8%.

And the viability, T/C [17]?
The viability, T/C was 95.7%.

What about the viability, T/C [18] of the same compound?
Its viability, T/C is 82%.

What about the viability, T/C [19] of the same compound?
The viability, T/C was 105%.

What about the viability, T/C [20] of the same compound?
Its viability, T/C is 82.9%.

And the viability, T/C [21]?
Its viability, T/C is 92%.

What about the viability, T/C [22] of the same compound?
The viability, T/C was 101%.

And the viability, T/C [23]?
The viability, T/C was 94.3%.

What about the viability, T/C [24] of the same compound?
Its viability, T/C is 82.5%.

And the viability, T/C [25]?
Its viability, T/C is 124%.

What about the viability, T/C [26] of the same compound?
The viability, T/C was 94.2%.

What about the viability, T/C [27] of the same compound?
Its viability, T/C is 90.5%.

And the viability, T/C [28]?
Its viability, T/C is 95.1%.

What about the viability, T/C [29] of the same compound?
Its viability, T/C is 83.7%.

And the viability, T/C [30]?
Its viability, T/C is 75.7%.

What about the viability, T/C [31] of the same compound?
Its viability, T/C is 93.2%.

And the viability, T/C [32]?
The viability, T/C was 101%.

What about the viability, T/C [33] of the same compound?
Its viability, T/C is 82.8%.

And the viability, T/C [34]?
Its viability, T/C is 89.7%.

And the viability, T/C [35]?
Its viability, T/C is 75.5%.

What about the viability, T/C [36] of the same compound?
The viability, T/C was 72.2%.

Which results are given for `Nc1ccn(C2OC(CO)C(O)C2(F)F)c(=O)n1` (stereo unspecified) + COC1C(OC(N)=O)C(O)C(Oc2ccc3c(O)c(NC(=O)c4ccc(O)c(CC=C(C)C)c4)c(=O)oc3c2C)OC1(C)C?
IC50 (second compound 0.0316 µM): > 10 µM; IC50 (second compound 0.1 µM): > 10 µM; IC50 (second compound 0.316 µM): > 10 µM; IC50 (second compound 1 µM): > 10 µM; IC50 (second compound 3.16 µM): > 10 µM; IC50 (second compound 10 µM): > 10 µM; viability, T/C [1]: 109%; viability, T/C [2]: 82%; viability, T/C [3]: 77.3%; viability, T/C [4]: 101%; viability, T/C [5]: 81.3%; viability, T/C [6]: 77.9%; viability, T/C [7]: 107%; viability, T/C [8]: 91.9%; viability, T/C [9]: 82.6%; viability, T/C [10]: 84%; viability, T/C [11]: 91.1%; viability, T/C [12]: 75.2%; viability, T/C [13]: 100%; viability, T/C [14]: 85.9%; viability, T/C [15]: 90.8%; viability, T/C [16]: 82.4%; viability, T/C [17]: 78.7%; viability, T/C [18]: 77.1%; viability, T/C [19]: 104%; viability, T/C [20]: 78.1%; viability, T/C [21]: 87%; viability, T/C [22]: 84.5%; viability, T/C [23]: 93.6%; viability, T/C [24]: 87.4%; viability, T/C [25]: 105%; viability, T/C [26]: 102%; viability, T/C [27]: 89.6%; viability, T/C [28]: 81.8%; viability, T/C [29]: 85.3%; viability, T/C [30]: 83.2%; viability, T/C [31]: 109%; viability, T/C [32]: 87.2%; viability, T/C [33]: 84.6%; viability, T/C [34]: 97.6%; viability, T/C [35]: 82.3%; viability, T/C [36]: 84.9%

Which results are given for `COc1cccc2c1C(=O)c1c(O)c3c(c(O)c1C2=O)CC(O)(C(=O)CO)CC3OC1CC(N)C(O)C(C)O1` (stereo unspecified) + COC1C(OC(N)=O)C(O)C(Oc2ccc3c(O)c(NC(=O)c4ccc(O)c(CC=C(C)C)c4)c(=O)oc3c2C)OC1(C)C?
IC50 (second compound 0.0316 µM): 3.17 µM; IC50 (second compound 0.1 µM): 2.56 µM; IC50 (second compound 0.316 µM): 3.45 µM; IC50 (second compound 1 µM): 2.64 µM; IC50 (second compound 3.16 µM): 2.16 µM; IC50 (second compound 10 µM): 3.72 µM; viability, T/C [1]: 95.5%; viability, T/C [2]: 104%; viability, T/C [3]: 82.4%; viability, T/C [4]: 75.8%; viability, T/C [5]: 51.8%; viability, T/C [6]: 2.47%; viability, T/C [7]: 107%; viability, T/C [8]: 96%; viability, T/C [9]: 74.2%; viability, T/C [10]: 74.7%; viability, T/C [11]: 50.4%; viability, T/C [12]: 2.16%; viability, T/C [13]: 102%; viability, T/C [14]: 96%; viability, T/C [15]: 76.7%; viability, T/C [16]: 74.8%; viability, T/C [17]: 61.4%; viability, T/C [18]: 2.49%; viability, T/C [19]: 103%; viability, T/C [20]: 91.4%; viability, T/C [21]: 77%; viability, T/C [22]: 64.6%; viability, T/C [23]: 57.5%; viability, T/C [24]: 2.7%; viability, T/C [25]: 98.8%; viability, T/C [26]: 90.4%; viability, T/C [27]: 78.4%; viability, T/C [28]: 68.7%; viability, T/C [29]: 42.3%; viability, T/C [30]: 2.41%; viability, T/C [31]: 99.5%; viability, T/C [32]: 83.1%; viability, T/C [33]: 83.1%; viability, T/C [34]: 75%; viability, T/C [35]: 62.2%; viability, T/C [36]: 1.87%
